The text below walks through data of patent publication US8598206B2, “Trypsin-like serine protease inhibitors, and their preparation and use” (The Medicines Company (Leipzig) GmbH, priority 2010, dated 2013).

Format in all cases: biochemical
The target of assay [1] is plasmin (Homo sapiens (Human), UniProt P00747). The assay can be described thus: Determination of inhibition constants for human plasmin (chromogenic substrate). Conditions: 25° C., Chromozym PL substrate; read-out: h plasmin Ki. Here is the method:
(§1) Determination of the Inhibition Constants for Human Plasmin (h Plasmin) and Human Plasma Kallikrein (h PK)
(§2) The inhibitory effect for the individual enzymes was determined in analogy to a previously disclosed method (Stürzebecher et al., J. Med. Chem., 40, 3091-3099 (1997)).
(§3) 200 μl of TBS (0.05 M trishydroxymethylaminomethane; 0.154 M NaCl, 2% ethanol, pH 8.0)
(§4) 25 μl of substrate (4 mM, 2 mM and 1 mM tosyl-Gly-Pro-Lys-pNA=Chromozym PL from LOXO for plasmin and 3 mM, 1.5 mM and 1 mM H-D-Pro-Phe-Arg-pNA=S2302 from Chromogenix for PK, dissolved in H2O)
(§5) 2 μL of a test compound solution in 50% v/v DMSO/water
(§6) 50 μl of enzyme solution (plasmin from Calbiochem: 1.7 mU/ml in 0.154 M NaCl+0.1% BSA m/v; plasma kallikrein from Enzyme Research Lab.: 62 ng/ml in 0.154 M NaCl+0.1% BSA m/v)
(§7) For zero order kinetics, the reaction was stopped after 20 min by adding 15 μl of acetic acid (80% v/v), and the absorption at 405 nm was determined using a Microplate Reader (Multiscan Ascent™, from Thermo). In the case of pseudo-first order kinetics, the reaction rates in the equilibrium state were determined by continuously recording the change in absorbance at 405 nm. The Ki values were calculated by parameter fitting in accordance with the rate equation for competitive inhibition using the GraFit software, version 4. The Ki values are the average of at least three determinations.

Assay [2] has as its target plasma kallikrein (Homo sapiens (Human), UniProt P03952). Nature of the assay: Determination of inhibition constants for human plasma kallikrein (chromogenic substrate). The settings on record: 25° C., S2302 substrate; read-out: h PK Ki. Here is the method: as §1, §2, §3, §4, §5, §6, §7
The target in assay [3] is human activated protein C (Homo sapiens (Human), UniProt P04070). Nature of the assay: Inhibition of human activated protein C. Conditions: Pefachrome PCa substrate; read-out: h aPC Ki. How it is done: as §2, §3, §5, §7
The target in assay [4] is human urinary kallikrein (Homo sapiens (Human), UniProt P06870). Nature of the assay: Inhibition of human urinary kallikrein. The settings on record: S-2266 substrate; read-out: h uKK Ki. Here is the method: as §2, §3, §5, §7
Assay [5] addresses human activated C1s complement component (Homo sapiens (Human), UniProt P09871). Nature of the assay: Inhibition of human C1s. Conditions: S2314 substrate; read-out: h C1s Ki. How it is done: as §2, §3, §5, §7
Subcomponent “s” of Human Complement Component 1 (h C1s): Inhibition of human C1s was determined by the method described in [0092]-[0098] using native human activated C1s complement component from Calbiochem at 29 nM and Val-Ser-Arg-pNA (S2314) at 8 mM, 6 mM, and 4 mM as substrate; results are reported as Ki values (nanomolar).

In assay [6] the target is human activated C1r complement component (Homo sapiens (Human), UniProt P00736). The assay can be described thus: Inhibition of human C1r. The settings on record: S2314 substrate; read-out: h C1r Ki. Here is the method: as §2, §3, §5, §7
The target of assay [7] is human alpha-thrombin (Homo sapiens (Human), UniProt P00734). The assay can be described thus: Inhibition of human Factor IIa. Conditions: Pefachrome tPA substrate; read-out: h FIIa Ki. How it is done:
as §2, §3, §5, §7

Assay [8] concerns the target human Factor Xa (Homo sapiens (Human), UniProt P00742). The assay can be described thus: Inhibition of human Factor Xa. Conditions: Pefachrome FXa substrate; read-out: h FXa Ki. How it is done:
The inhibitory effect for the individual enzymes was determined in analogy to a previously disclosed method (Stürzebecher et al., J. Med. […] In the case of pseudo-first order kinetics, the reaction rates in the equilibrium state were determined by continuously recording the change in absorbance at 405 nm. […] The Ki values are the average of at least three determinations. Human Factor Xa (h FXa): […]

Assay [9] addresses human Factor XIa (Homo sapiens (Human), UniProt P03951). The assay can be described thus: Inhibition of human Factor XIa. The settings on record: Pefachrome PCa substrate; read-out: h FXIa Ki. Here is the method:
as §2, §3, §5, §7

For assay [10], the target named is human alpha-FXIIa (Homo sapiens (Human), UniProt P00748). The assay can be described thus: Inhibition of human alpha-Factor XIIa. The settings on record: CHA-Gly-Arg-pNA substrate; read-out: h FXIIa Ki. How it is done: as §2, §3, §5, §7
The target of assay [11] is human t-PA (Homo sapiens (Human), UniProt P00750). Nature of the assay: Inhibition of human tissue-type plasminogen activator. Conditions: Pefachrome tPA substrate; read-out: h t-PA Ki. Here is the method:
as §2, §3, §5, §7

human t-PA, sequence (P00750 36-562): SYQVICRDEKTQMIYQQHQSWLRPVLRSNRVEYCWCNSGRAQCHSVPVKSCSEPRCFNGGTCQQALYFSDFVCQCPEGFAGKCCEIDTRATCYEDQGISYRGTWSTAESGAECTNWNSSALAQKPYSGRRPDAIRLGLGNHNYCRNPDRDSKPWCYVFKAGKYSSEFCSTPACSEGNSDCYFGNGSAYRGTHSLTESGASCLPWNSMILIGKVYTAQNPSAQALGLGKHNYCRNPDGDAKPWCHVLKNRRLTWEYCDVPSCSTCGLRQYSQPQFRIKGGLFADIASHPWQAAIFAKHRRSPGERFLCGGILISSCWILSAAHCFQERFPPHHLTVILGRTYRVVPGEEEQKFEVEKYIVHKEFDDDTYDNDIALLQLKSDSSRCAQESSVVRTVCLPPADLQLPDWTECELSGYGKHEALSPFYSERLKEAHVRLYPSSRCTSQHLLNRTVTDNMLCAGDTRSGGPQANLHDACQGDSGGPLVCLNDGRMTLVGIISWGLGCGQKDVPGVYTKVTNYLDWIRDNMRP
human activated protein C, sequence (P04070 212-450): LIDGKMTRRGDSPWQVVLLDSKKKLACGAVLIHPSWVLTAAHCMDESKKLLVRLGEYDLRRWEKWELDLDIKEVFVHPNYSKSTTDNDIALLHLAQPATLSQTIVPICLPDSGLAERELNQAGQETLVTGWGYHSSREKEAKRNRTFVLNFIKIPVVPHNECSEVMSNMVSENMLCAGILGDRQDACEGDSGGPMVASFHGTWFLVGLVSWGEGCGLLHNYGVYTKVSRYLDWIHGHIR
human activated protein C, sequence (P04070 43-197 partner): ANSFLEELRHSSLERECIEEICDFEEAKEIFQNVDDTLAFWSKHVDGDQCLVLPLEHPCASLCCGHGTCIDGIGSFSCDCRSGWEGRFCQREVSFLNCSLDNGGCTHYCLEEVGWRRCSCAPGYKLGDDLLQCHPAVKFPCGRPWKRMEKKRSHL
human alpha-FXIIa, sequence (P00748 373-615): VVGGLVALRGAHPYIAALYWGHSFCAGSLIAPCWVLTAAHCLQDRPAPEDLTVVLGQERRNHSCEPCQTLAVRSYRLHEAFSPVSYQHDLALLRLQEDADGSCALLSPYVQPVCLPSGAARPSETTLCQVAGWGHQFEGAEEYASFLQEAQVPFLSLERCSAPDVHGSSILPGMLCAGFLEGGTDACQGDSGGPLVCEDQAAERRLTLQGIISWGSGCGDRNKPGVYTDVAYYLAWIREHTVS
human alpha-FXIIa, sequence (P00748 20-372 partner): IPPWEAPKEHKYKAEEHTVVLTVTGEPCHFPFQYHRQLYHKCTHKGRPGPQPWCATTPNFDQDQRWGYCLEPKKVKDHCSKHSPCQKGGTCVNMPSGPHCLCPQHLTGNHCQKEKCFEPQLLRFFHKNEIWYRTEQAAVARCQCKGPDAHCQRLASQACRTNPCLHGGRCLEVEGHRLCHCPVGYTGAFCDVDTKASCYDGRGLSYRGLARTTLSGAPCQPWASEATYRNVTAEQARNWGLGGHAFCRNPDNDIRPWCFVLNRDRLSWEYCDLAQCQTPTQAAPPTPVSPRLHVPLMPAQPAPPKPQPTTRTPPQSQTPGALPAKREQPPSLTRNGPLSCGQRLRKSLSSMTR
plasma kallikrein, sequence (P03952 391-638): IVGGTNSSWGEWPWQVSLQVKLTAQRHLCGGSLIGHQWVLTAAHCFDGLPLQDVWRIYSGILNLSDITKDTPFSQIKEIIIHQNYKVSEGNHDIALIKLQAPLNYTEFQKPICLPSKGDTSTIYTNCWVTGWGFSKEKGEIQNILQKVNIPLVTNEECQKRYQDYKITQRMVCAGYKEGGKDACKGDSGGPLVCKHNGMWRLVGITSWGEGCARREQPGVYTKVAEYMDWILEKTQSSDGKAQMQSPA
plasma kallikrein, sequence (P03952 20-390 partner): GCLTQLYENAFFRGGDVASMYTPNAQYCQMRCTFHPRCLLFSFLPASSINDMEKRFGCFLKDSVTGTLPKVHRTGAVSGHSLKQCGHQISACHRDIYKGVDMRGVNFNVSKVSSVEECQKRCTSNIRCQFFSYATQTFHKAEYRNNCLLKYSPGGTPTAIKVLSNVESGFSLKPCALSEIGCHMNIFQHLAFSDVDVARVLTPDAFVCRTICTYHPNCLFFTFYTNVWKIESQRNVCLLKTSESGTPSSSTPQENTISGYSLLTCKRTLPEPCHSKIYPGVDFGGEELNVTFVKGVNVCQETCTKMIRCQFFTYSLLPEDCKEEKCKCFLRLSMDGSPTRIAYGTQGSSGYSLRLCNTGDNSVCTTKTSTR
plasmin, sequence (P00747 581-810): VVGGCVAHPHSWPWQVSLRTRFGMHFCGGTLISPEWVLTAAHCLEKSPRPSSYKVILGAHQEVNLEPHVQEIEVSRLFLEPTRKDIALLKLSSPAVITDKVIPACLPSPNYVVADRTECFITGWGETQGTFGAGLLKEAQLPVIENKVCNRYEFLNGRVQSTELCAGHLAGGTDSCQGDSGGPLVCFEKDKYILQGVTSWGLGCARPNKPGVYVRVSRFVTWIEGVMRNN
plasmin, sequence (P00747 97-580 partner): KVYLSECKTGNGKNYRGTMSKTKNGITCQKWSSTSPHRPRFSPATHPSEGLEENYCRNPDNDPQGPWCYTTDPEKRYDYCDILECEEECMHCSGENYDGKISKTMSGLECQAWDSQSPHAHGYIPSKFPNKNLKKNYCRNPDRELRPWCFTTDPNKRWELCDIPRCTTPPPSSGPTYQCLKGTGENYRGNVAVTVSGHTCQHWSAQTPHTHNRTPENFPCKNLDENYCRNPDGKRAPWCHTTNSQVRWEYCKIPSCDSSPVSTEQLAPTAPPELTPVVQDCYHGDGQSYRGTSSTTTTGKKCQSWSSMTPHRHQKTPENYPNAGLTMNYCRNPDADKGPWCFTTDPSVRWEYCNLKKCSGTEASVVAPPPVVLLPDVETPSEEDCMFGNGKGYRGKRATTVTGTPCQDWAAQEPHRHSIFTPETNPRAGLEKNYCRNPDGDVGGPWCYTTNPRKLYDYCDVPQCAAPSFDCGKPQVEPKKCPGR
human urinary kallikrein, sequence (P06870 25-262): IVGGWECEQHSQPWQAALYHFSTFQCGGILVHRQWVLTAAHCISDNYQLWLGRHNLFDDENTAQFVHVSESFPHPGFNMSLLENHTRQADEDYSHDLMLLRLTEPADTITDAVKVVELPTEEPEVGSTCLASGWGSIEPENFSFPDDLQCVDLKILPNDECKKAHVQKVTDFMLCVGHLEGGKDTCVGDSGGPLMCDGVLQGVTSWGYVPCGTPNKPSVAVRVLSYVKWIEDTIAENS
human Factor XIa, sequence (P03951 388-625): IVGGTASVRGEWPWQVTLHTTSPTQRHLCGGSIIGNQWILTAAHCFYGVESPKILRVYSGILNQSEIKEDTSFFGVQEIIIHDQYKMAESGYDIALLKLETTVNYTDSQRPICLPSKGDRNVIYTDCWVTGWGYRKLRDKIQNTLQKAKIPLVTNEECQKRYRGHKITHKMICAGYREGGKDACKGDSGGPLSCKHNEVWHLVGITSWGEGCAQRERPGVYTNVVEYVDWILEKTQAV
human Factor XIa, sequence (P03951 19-387 partner): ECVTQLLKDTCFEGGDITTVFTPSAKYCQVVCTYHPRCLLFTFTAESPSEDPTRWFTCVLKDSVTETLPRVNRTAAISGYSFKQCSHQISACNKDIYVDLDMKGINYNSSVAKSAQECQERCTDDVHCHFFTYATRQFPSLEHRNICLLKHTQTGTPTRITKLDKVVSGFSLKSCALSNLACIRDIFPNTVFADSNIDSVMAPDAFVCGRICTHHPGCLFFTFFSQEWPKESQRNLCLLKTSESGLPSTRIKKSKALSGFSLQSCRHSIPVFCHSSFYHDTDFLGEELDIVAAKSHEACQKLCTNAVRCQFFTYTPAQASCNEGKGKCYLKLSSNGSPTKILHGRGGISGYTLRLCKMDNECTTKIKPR
human activated C1r complement component, sequence (P00736 464-705): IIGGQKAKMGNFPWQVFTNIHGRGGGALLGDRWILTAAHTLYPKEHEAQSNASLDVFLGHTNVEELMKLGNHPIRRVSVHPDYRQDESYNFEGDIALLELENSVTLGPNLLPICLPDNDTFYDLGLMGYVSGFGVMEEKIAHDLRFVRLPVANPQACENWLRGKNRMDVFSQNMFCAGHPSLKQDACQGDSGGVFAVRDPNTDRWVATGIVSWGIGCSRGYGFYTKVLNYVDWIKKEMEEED
human activated C1r complement component, sequence (P00736 18-463 partner): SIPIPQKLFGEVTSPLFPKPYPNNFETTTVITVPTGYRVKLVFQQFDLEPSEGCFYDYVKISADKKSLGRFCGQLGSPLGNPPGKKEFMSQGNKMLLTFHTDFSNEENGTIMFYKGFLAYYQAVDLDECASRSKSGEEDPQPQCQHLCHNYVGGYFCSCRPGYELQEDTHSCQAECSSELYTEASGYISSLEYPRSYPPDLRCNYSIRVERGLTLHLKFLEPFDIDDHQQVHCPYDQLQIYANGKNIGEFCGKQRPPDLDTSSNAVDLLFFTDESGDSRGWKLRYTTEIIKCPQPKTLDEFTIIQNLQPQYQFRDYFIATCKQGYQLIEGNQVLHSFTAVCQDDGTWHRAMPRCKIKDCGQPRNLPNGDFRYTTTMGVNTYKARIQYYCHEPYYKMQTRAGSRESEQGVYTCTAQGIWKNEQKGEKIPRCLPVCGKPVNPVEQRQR
human Factor Xa, sequence (P00742 235-488): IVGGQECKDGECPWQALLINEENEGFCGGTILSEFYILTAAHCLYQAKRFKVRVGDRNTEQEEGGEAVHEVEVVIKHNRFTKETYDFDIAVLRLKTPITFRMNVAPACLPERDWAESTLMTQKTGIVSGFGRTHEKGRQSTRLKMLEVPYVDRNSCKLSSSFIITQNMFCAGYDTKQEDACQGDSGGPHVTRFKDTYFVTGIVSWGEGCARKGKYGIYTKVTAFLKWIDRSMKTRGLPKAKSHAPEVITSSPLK
human Factor Xa, sequence (P00742 41-179 partner): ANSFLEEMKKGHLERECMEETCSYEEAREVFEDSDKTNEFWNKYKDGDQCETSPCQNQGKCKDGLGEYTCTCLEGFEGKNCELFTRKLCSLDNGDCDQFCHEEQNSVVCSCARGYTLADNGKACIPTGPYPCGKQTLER

With `CC(C)C(=O)N1CCC(CC[C@@H](NS(=O)(=O)Cc2ccccc2)C(=O)N[C@@H](CCC2CCNCC2)C(=O)NCc2ccc(C(=N)N)cc2)CC1`, the inhibitory constant (Ki) in assay [1] was 0.0006 µM; in assay [2], 0.0015 µM; in assay [3] it was 1.7 µM; in assay [4] it was greater than 200 µM; in assay [5], greater than 25 µM; in assay [6], greater than 30 µM. Also, the inhibitory constant (Ki) in assay [7] is 13 µM; in assay [8] it was 3.2 µM; in [9], 0.92 µM; in assay [10], 1.3 µM; in assay [11], 6.5 µM.
As for `CCC(=O)N1CCC(CC[C@@H](NS(=O)(=O)Cc2ccccc2)C(=O)N[C@@H](CCC2CCNCC2)C(=O)NCc2ccc(C(=N)N)cc2)CC1`, the Ki is 0.0008 µM in [1]; 0.0009 µM in [2]; 1.2 µM in assay [3]; greater than 60 µM in assay [4]; greater than 25 µM in assay [5]; greater than 35 µM in assay [6]. The Ki is 5.6 µM in [7]; 2.3 µM in [8]; 0.72 µM in assay [9]; 0.65 µM in assay [10]; 5.1 µM in assay [11].
On to `N=C(N)c1ccc(CNC(=O)[C@H](CCC2CCNCC2)NC(=O)[C@@H](CCCc2ccccc2)NS(=O)(=O)Cc2cccc(C(=O)O)c2)cc1`, for which the inhibitory constant (Ki) was 0.0038 µM in assay [1]; 0.003 µM in assay [2]; 0.31 µM in assay [3]; greater than 20 µM in assay [4]; 1.2 µM in assay [5]; greater than 20 µM in [6]. The Ki was found to be 4.4 µM in assay [7], 2.4 µM in [8] and 0.07 µM in assay [9].
Consider `N=C(N)c1ccc(CNC(=O)[C@H](CCC2CCNCC2)NC(=O)[C@H](NS(=O)(=O)Cc2ccccc2)c2ccccc2)cc1`, for which the inhibition constant Ki in assay [1] was found to be 0.0022 µM; in assay [2], 0.02 µM; in [3], 0.21 µM; in [7] it was 1.7 µM; in [8], 1.6 µM; in assay [9] it was 1 µM.
Regarding `N=C(N)c1ccc(CNC(=O)[C@H](CCC2CCNCC2)NC(=O)[C@@H](CCCc2cc[n+]([O-])cc2)NS(=O)(=O)Cc2ccccc2)cc1` [drawing 123], the Ki is 0.001 µM in assay [1]; 0.004 µM in assay [2]; 0.85 µM in assay [3]; greater than 200 µM in assay [4]; 9.5 µM in assay [5]; greater than 30 µM in [6]. Also, the inhibitory constant (Ki) was determined as 4.9 µM in assay [7]; 0.4 µM in [8]; 1.4 µM in assay [9]; 0.87 µM in assay [10]; 2.4 µM in assay [11].
For `CC(=O)N1CCC(CC[C@@H](NS(=O)(=O)Cc2ccccc2)C(=O)N[C@@H](CCC2CCNCC2)C(=O)NCc2ccc(C(=N)N)cc2)CC1`, the Ki in [1] is 0.0018 µM; in assay [2], 0.005 µM; in assay [3], 1.2 µM; in assay [4], greater than 20 µM; in [5], greater than 20 µM; in assay [6] it was greater than 40 µM. Moreover, the Ki worked out at 8 µM in [7]; 1.9 µM in [8]; 1.4 µM in assay [9]; 0.53 µM in assay [10]; 4.8 µM in assay [11].
For the compound `N=C(N)c1ccc(CNC(=O)[C@H](CCC2CCNCC2)NC(=O)[C@@H](CCc2cc[n+]([O-])cc2)NS(=O)(=O)Cc2ccccc2)cc1`, the inhibition constant Ki in assay [1] is 0.005 µM; in assay [2] it was 0.02 µM; in [3], 0.25 µM; in assay [4] it was greater than 100 µM; in assay [5] it was 4.2 µM; in [6] it was greater than 50 µM. Also, the inhibition constant (Ki) turned out to be 9 µM in assay [7], 0.12 µM in assay [8] and 2.5 µM in assay [9].
As for `N=C(N)c1ccc(CNC(=O)[C@H](CCC2CCNCC2)NC(=O)[C@@H](CCCc2cc[n+]([O-])cc2)NS(=O)(=O)Cc2ccccc2)cc1` [drawing 117], the inhibition constant Ki was 0.001 µM in assay [1]; 0.004 µM in [2]; 0.85 µM in [3]; greater than 200 µM in [4]; 10 µM in [5]; greater than 30 µM in assay [6]. Further, the Ki in [7] was 4.9 µM; in [8], 0.4 µM; in assay [9], 1.4 µM; in assay [10], 0.87 µM; in [11] it was 2.4 µM.
Take `N=C(N)c1ccc(CNC(=O)[C@H](CCC2CCNCC2)NC(=O)[C@@H](CCCc2ccccc2)NS(=O)(=O)Cc2ccccc2)cc1`: the Ki in [1] is 0.00025 µM; in assay [2] it was 0.0015 µM; in [3], 0.555 µM; in assay [4], greater than 50 µM; in assay [5], greater than 5 µM; in [7], 0.24 µM. Also, the inhibitory constant (Ki) was determined as 1.1 µM in assay [8], 0.135 µM in assay [9], 3 µM in [10] and 1.7 µM in assay [11].
On to `N=C(N)c1ccc(CNC(=O)[C@H](CCC2CCNCC2)NC(=O)[C@@H](CCCn2cnnn2)NS(=O)(=O)Cc2ccccc2)cc1`, for which the Ki in [1] was 0.008 µM; in assay [2] it was 0.0053 µM; in assay [3], 1.3 µM; in assay [4] it was greater than 200 µM; in assay [5], greater than 10 µM; in assay [7], 4.7 µM. The inhibition constant Ki came out at 2.4 µM in assay [8] and 1.4 µM in [9].
As to `N=C(N)c1ccc(CNC(=O)[C@H](CCC2CCNCC2)NC(=O)[C@@H](CCC2CCNCC2)NS(=O)(=O)Cc2ccccc2)cc1`, the Ki in [1] is 0.003 µM; in assay [2], 0.0075 µM; in [3] it was 0.06 µM; in [4], greater than 100 µM; in [5] it was greater than 25 µM; in assay [6], greater than 100 µM. Moreover, the Ki in assay [7] turned out to be 4.2 µM; in assay [8], 0.09 µM; in assay [9] it was 1.4 µM.
`COC(=O)N1CCC(CCC[C@@H](NS(=O)(=O)Cc2ccccc2)C(=O)N[C@@H](CCC2CCNCC2)C(=O)NCc2ccc(C(=N)N)cc2)CC1`: the Ki in assay [1] was 0.001 µM; in assay [2], 0.0015 µM; in assay [3] it was 0.8 µM; in [4], greater than 100 µM; in [5] it was 6.5 µM; in [6] it was greater than 100 µM. In addition, the Ki came out at 3.6 µM in assay [7], 0.4 µM in [8], 0.6 µM in [9] and 0.4 µM in assay [10].
As to `N=C(N)c1ccc(CNC(=O)[C@H](CCC2CCNCC2)NC(=O)[C@@H](CCCC2CCNCC2)NS(=O)(=O)Cc2ccccc2)cc1`, the inhibition constant Ki in assay [1] was 0.002 µM; in assay [2] it was 0.0075 µM; in assay [3], 0.4 µM; in assay [4] it was greater than 50 µM; in [5], 8 µM; in [6], greater than 50 µM. The figures for the Ki in [7], in [8] and in assay [9] were 0.8 µM, 0.3 µM and 0.8 µM, respectively.
Consider `N=C(N)c1ccc(CNC(=O)[C@H](CCC2CCNCC2)NC(=O)[C@@H](CCc2ccncc2)NS(=O)(=O)Cc2ccccc2)cc1`, for which the Ki in assay [1] was 0.0015 µM; in assay [2], 0.009 µM; in assay [3] it was 0.027 µM; in assay [4] it was greater than 200 µM; in assay [5], 2 µM; in assay [6], greater than 20 µM. For the same compound, the Ki in assay [7] was determined as 3.9 µM; in [8], 0.02 µM; in assay [9], 0.5 µM.
